According to patent US7125990B2, “Imidazolyl derivatives as corticotropin releasing factor inhibitors” (Bristol-Myers Squibb COmpany, priority 2001, dated 2006):

Target: T1, CRF1 receptors (Homo sapiens, UniProt P34998)
T1 construct: endogenous in cells; host or cells: IMR-32 cells, transformed with 2.5 µM 5'-bromo-2'-deoxyuridine for 10 days; membrane preparation
T1 sequence (P34998 24-415): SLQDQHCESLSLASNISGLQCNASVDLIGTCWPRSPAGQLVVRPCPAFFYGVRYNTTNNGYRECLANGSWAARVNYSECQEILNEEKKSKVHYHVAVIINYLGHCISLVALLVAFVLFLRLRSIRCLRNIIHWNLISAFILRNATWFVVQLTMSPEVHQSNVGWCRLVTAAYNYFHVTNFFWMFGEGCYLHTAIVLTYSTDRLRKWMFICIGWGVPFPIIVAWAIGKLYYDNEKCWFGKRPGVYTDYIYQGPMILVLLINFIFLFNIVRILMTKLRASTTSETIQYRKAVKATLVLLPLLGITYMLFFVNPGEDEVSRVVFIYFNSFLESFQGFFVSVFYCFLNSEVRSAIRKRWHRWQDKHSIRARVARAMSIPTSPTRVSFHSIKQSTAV
Test: CRF1 receptor radioligand binding assay ([125I]-oCRF competition, IMR-32 cell membranes)
Conditions: IMR-32 cell membranes, [125I]-oCRF 100 pM; read-out: Ki (CRF-1R)
Method in brief: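 Buffer: Tris pH 7.2 with MgCl2, BSA, Triton X-100, aprotinin, leupeptin; reaction stopped with ice-cold wash and filtered. Nonspecific binding set with 10 μM oCRF.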

Row | SMILES | Ki
1 | Cc1cc(C)c(N2CCCn3c2nc(C(F)(F)F)c3CN(CCC(F)(F)F)Cc2ccc(F)cc2)c(Cl)c1 [Example 127, [8-(2-Chloro-4,6-dimethyl-phenyl)-2-trifluoromethyl-5,6,7,8-tetrahydro-imidazo[1,2-a]pyrimidin-3-ylmethyl]-(4-fluoro-benzyl)-(3,3,3-trifluoro-propyl)-amine] | < 1000 nM
2 | Cc1cc(C)c(N2CCCn3c2nc(C(F)(F)F)c3CN(CCC(F)(F)F)Cc2ccc(Cl)cc2)c(Cl)c1 [Example 128, (4-Chloro-benzyl)-[8-(2-chloro-4,6-dimethyl-phenyl)-2-trifluoromethyl-5,6,7,8-tetrahydro-imidazo[1,2-a]pyrimidin-3-ylmethyl]-(3,3,3-trifluoro-propyl)-amine] | < 1000 nM
3 | CCCN(Cc1ccc(Cl)cc1)Cc1c(C(F)(F)F)nc2n1CCCN2c1c(C)cc(C)cc1Cl [Example 129, (4-Chloro-benzyl)-[8-(2-chloro-4,6-dimethyl-phenyl)-2-trifluoromethyl-5,6,7,8-tetrahydro-imidazo[1,2-a]pyrimidin-3-ylmethyl]-propyl-amine] | < 1000 nM
4 | CCCN(Cc1ccccc1)Cc1c(C(F)(F)F)nc2n1CCCN2c1c(C)cc(C)cc1Cl [Example 130, Benzyl-[8-(2-chloro-4,6-dimethyl-phenyl)-2-trifluoromethyl-5,6,7,8-tetrahydro-imidazo[1,2-a]pyrimidin-3-ylmethyl]-propyl-amine] | < 1000 nM
5 | C=CCN(CCC)Cc1c(C(F)(F)F)nc2n1CCCN2c1c(C)cc(C)cc1Cl [Example 131, Allyl-[8-(2-chloro-4,6-dimethyl-phenyl)-2-trifluoromethyl-5,6,7,8-tetrahydro-imidazo[1,2-a]pyrimidin-3-ylmethyl]-propyl-amine] | < 100 nM
6 | CCCN(Cc1ccc(F)cc1)Cc1c(C(F)(F)F)nc2n1CCCN2c1c(C)cc(C)cc1Cl [Example 132, [8-(2-Chloro-4,6-dimethyl-phenyl)-2-trifluoromethyl-5,6,7,8-tetrahydro-imidazo[1,2-a]pyrimidin-3-ylmethyl]-(4-fluoro-benzyl)-propyl-amine] | < 1000 nM
7 | Cc1cc(C)c(N2CCCn3c2nc(C(F)(F)F)c3CN(CCC(F)(F)F)Cc2cccc(F)c2)c(Cl)c1 [Example 133, [8-(2-Chloro-4,6-dimethyl-phenyl)-2-trifluoromethyl-5,6,7,8-tetrahydro-imidazo[1,2-a]pyrimidin-3-ylmethyl]-(3-fluoro-benzyl)-(3,3,3-trifluoro-propyl)-amine] | < 1000 nM
8 | CCCN(Cc1cccc(F)c1)Cc1c(C(F)(F)F)nc2n1CCCN2c1c(C)cc(C)cc1Cl [Example 134, [8-(2-Chloro-4,6-dimethyl-phenyl)-2-trifluoromethyl-5,6,7,8-tetrahydro-imidazo[1,2-a]pyrimidin-3-ylmethyl]-(3-fluoro-benzyl)-propyl-amine] | < 1000 nM
9 | Cc1cc(C)c(N2CCCn3c2nc(C(F)(F)F)c3CN(CC2CC2)CC(F)(F)F)c(Cl)c1 [Example 135, [8-(2-Chloro-4,6-dimethyl-phenyl)-2-trifluoromethyl-5,6,7,8-tetrahydro-imidazo[1,2-a]pyrimidin-3-ylmethyl]-cyclopropylmethyl-(2,2,2-trifluoroethyl)-amine] | < 100 nM
10 | CCN(Cc1c(C(F)(F)F)nc2n1CCCN2c1c(C)cc(C)cc1Cl)CC1CCC1 [Example 137, [8-(2-Chloro-4,6-dimethyl-phenyl)-2-trifluoromethyl-5,6,7,8-tetrahydro-imidazo[1,2-a]pyrimidin-3-ylmethyl]-cyclobutylmethyl-ethyl-amine] | < 1000 nM
11 | Cc1cc(C)c(N2CCCn3c2nc(C(F)(F)F)c3CN2CCCC2Cc2ccccc2)c(Cl)c1 (stereo not shown) [Example 138, 3-(2-Benzyl-pyrrolidin-1-ylmethyl)-8-(2-chloro-4,6-dimethyl-phenyl)-2-trifluoromethyl-5,6,7,8-tetrahydro-imidazo[1,2-a]pyrimidine] | < 100 nM
12 | CCCN(CC1CC1)C(=O)c1c(C)nc2n(-c3c(C)cc(C)cc3C)c3ccc(F)cc3n12 [Example 139, 5-Fluoro-2-methyl-8-(2,4,6-trimethyl-phenyl)-8H-1,3a,8-triaza-cyclopenta[α]indene-3-carboxylic acid cyclopropylmethyl-propyl-amide] | < 10000 nM
13 | CCCN(CC1CC1)C(=O)c1c(C)nc2n(-c3c(C)cc(C)cc3C)c3ccccc3n12 [Example 140, 2-Methyl-8-(2,4,6-trimethyl-phenyl)-8H-1,3a,8-triaza-cyclopenta[α]indene-3-carboxylic acid cyclopropylmethyl-propyl-amide] | < 1000 nM
14 | CCCN(CC1CC1)C(=O)c1c(CC)nc2n(-c3c(C)cc(C)cc3C)c3ccccc3n12 [Example 141, 2-Ethyl-8-(2,4,6-trimethyl-phenyl)-8H-1,3a,8-triaza-cyclopenta[a]indene-3-carboxylic acid cyclopropylmethyl-propyl-amide] | < 1000 nM
15 | CCCN(CC1CC1)C(=O)c1c(C(F)(F)F)nc2n(-c3c(C)cc(C)cc3C)c3ccccc3n12 [Example 142, 2-trifluoromethyl-8-(2,4,6-trimethylphenyl)-8H-1,3a,8-triaza-cyclopenta[a]indene-3-carboxylic acid cyclopropylmethyl-propyl-amide] | < 10000 nM
16 | CCCN(CC1CC1)C(=O)c1c(C)nc2n(-c3ccc(Cl)cc3Cl)c3ccccc3n12 [Example 143, 8-(2,4-Dichloro-phenyl)-2-methyl-8H-1,3a,8-triaza-cyclopenta[a]indene-3-carboxylic acid cyclopropylmethyl-propyl-amide] | < 10000 nM
17 | CCCN(CC1CC1)C(=O)c1c(CC)nc2n(-c3c(C)cc(C)cc3C)c3ccc(F)cc3n12 [Example 144, 2-Ethyl-5-fluoro-8-(2,4,6-trimethyl-phenyl)-8H-1,3a,8-triaza-cyclopenta[a]indene-3-carboxylic acid cyclopropylmethyl-propyl-amide] | < 100 nM
18 | CCCN(Cc1c(C)nc2n(-c3c(C)cc(C)cc3C)c3ccc(F)cc3n12)CC1CC1 [Example 145, Cyclopropylmethyl-[5-fluoro-2-methyl-8-(2,4,6-trimethyl-phenyl)-8H-1,3a,8-triaza-cyclopenta[a]inden-3-ylmethyl]-propyl-amine] | < 100 nM
19 | CCCN(Cc1c(C)nc2n(-c3c(C)cc(C)cc3C)c3ccccc3n12)CC1CC1 [Example 146, Cyclopropylmethyl-[2-methyl-8-(2,4,6-trimethyl-phenyl)-8H-1,3a,8-triaza-cyclopenta[α]inden-3-ylmethyl]-propyl-amine] | < 100 nM
20 | CCCN(Cc1c(CC)nc2n(-c3c(C)cc(C)cc3C)c3ccccc3n12)CC1CC1 [Example 147, Cyclopropylmethyl-[2-ethyl-8-(2,4,6-trimethyl-phenyl)-8H-1,3a,8-triaza-cyclopenta[a]inden-3-ylmethyl]-propyl-amine] | < 100 nM
21 | CCCN(Cc1c(C(F)(F)F)nc2n(-c3c(C)cc(C)cc3C)c3ccccc3n12)CC1CC1 [Example 148, Cyclopropylmethyl-propyl-[2-trifluoromethyl-8-(2,4,6-trimethyl-phenyl)-8H-1,3a,8-triaza-cyclopenta[α]inden-3-ylmethyl]-amine] | < 100 nM
22 | CCCN(Cc1c(CC)nc2n(-c3c(C)cc(C)cc3C)c3ccc(F)cc3n12)CC1CC1 [Example 149, Cyclopropylmethyl-[2-ethyl-5-fluoro-8-(2,4,6-trimethyl-phenyl)-8H-1,3a,8-triaza-cyclopenta[α]inden-3-ylmethyl]-propyl-amine] | < 1000 nM
